Ends that are not written are not given here. * marks the point of attachment. 5FAM = O=C1OC2(c3ccc(O)cc3Oc3cc(O)ccc32)c2ccc(C(=O)*)cc21
Assays:
[1] = tested on: mitochondrial membrane potential; assay: Quantification of mitochondrial membrane potential based on TMRE localization in cardiac cells (FIG. 8); assay type: cell-based; details: treated vs control, FIG. 8 panels E and F
From the text: FIG. 8 consists of panels A-J. Panels A and B are images showing quantification of mitochondrial membrane potential based on TMRE localization in control (panel A) and MTS1-Ls-5-FAM-treated (panel B) cardiac cells. TMRE localizes in the mitochondria, and based on the intensity of the TMRE dye, the mitochondrial membrane potential can be calculated (panel C).

[2] = tested on: mitochondria; assay: Confocal fluorescence microscopy of cellular localization of the conjugate in rat cells (FIG. 3); assay type: cell-based
Protocol: FIG. 3 contains confocal fluorescence microscopy images of rat liver cells incubated with MTS1-Ls-5-FAM for 24 hrs.
The MTS1-Ls-5-FAM conjugate was transfected into rat cells and incubated for 24 hours before confocal fluorescence microscopy was performed to ascertain cellular localization. Cells were co-stained with Mitotracker-Red and Hoescht 33342 for the mitochondria and nuclei, respectively.

[3] = tested on: mitochondria of cardiac cells; assay: Co-localization with mitochondria of cardiac cells (FIG. 7); assay type: cell-based
[4] = tested on: skeletal muscle; assay: Skeletal muscle healing and disuse atrophy in older mice; assay type: in vivo; details: high doses
From the text: (§1) The inventors recently discovered functional mitochondrial Angiotensin receptors (mtAT1R and mtAT2R) that shift to an increased mtAT1R/mtAT2R ratio with aging. One of the protective benefits of Angiotensin (Ang) receptor type 1 (AT1R) blockers, such as Losartan (LOS), arises from its systemic effects on blood pressure and remodelling. […] Therefore, angiotensin receptor blockers such as Losartan have utility beyond hypertension treatment; angiotensin receptor blockers can be used in the treatment of conditions relevant to older adults.

[5] = tested on: mitochondrial function; assay: Effect of Losartan on mitochondrial function
From the text: as §1

Compound | maximum TMRE intensity per pixel [1] | localization of the conjugate with the mitochondria ([2]; rat cells, incubated 24 hours, co-stained with Mitotracker-Red and Hoescht 33342) | localization in merged confocal image ([2]; rat liver cells incubated 24 hrs, FIG. 3 panel (d)) | co-localization with mitochondria (images) ([3]; FIG. 7 panels A and B) | co-localization with mitochondria by Pearson coefficient ([3]; relative to the scrambled MTS1-Ls-5-FAM, FIG. 7 panel C) | co-localization with mitochondria by Mander's coefficient ([3]; relative to the scrambled MTS1-Ls-5-FAM, FIG. 7 panel D) | disuse atrophy [4] | skeletal muscle healing [4] | mitochondrial function [5]
MTS1-Ls-5-FAM (MLRAALSTARRGPRLSRLLCK(5FAM); not fully specified (C-terminus); printed as MLRAALSTARRGPRLSRLLCK(Mtt); also: losartan conjugated, site not given here) | no significant difference | greater than 80% | localization of MTS1-Ls-5-FAM within the mitochondria | positive co-localization | significantly more co-localized | significantly more co-localized |  |  | 
CCCCc1nc(Cl)c(CO)n1Cc1ccc(-c2ccccc2-c2nn[nH]n2)cc1 [LOS, Losartan] |  |  |  |  |  |  | prevent disuse atrophy | accelerate skeletal muscle healing | improved

Source: US10525144B2, “Selective targeting of an anti-inflammatory receptor in human mitochondria and preservation of mitochondrial functions” (THE JOHNS HOPKINS UNIVERSITY, priority 2014, dated 2020)
